Source: article PMC2895357 (Journal of Medicinal Chemistry, 2010)

Tests used:
[1] = target: T1, TbGalE (UDP-galactose 4′-epimerase from Trypanosoma brucei) (Trypanosoma brucei, UniProt Q8T8E9); assay: TbGalE inhibition assay; format: biochemical; conditions: for Hill Slope: TbGalE potency curve
T1 sequence (Q8T8E9 1-395): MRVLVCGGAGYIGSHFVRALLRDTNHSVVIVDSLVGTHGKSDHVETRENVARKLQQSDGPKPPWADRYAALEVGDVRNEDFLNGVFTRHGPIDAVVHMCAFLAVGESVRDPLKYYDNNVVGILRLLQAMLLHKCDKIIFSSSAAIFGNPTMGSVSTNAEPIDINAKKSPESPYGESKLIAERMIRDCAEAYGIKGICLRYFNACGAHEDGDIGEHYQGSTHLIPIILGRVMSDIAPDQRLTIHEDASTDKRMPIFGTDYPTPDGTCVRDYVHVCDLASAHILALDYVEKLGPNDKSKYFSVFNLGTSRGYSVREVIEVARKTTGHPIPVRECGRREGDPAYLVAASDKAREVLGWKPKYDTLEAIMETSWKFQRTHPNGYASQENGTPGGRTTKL

Trypanosoma cruzi = conditions: cited from earlier work
[2] = Cytotoxicity assay against human MRC5 cells; format: cell-based; conditions: human, MRC5 cells
cultured T. brucei = format: cell-based, Trypanosoma brucei; conditions: whole-cell T. brucei, three days, Alamar Blue
human MRC5 cells = assay: Cytotoxicity assay against human MRC5 cells; format: cell-based; conditions: human MRC5 cells, three days, Alamar Blue

Row | SMILES | Hill Slope [1] | EC50 at 3 days [2] [µM] | other results
1 | CO[C@@H]1[C@@H](OC(N)=O)[C@@H](O)[C@H](Oc2ccc3c(O)c(NC(=O)c4ccc(O)c(CC=C(C)C)c4)c(=O)oc3c2C)OC1(C)C [novobiocin, reference compound] |  |  | inhibition at 10 µM ([1]; read-out: TbGalE inhibition at 10 μM): ≤ 50%; inhibition of growth of Trypanosoma cruzi (Trypanosoma cruzi): inhibits the growth
2 | COC1C(OC(=O)c2ccc(C)[nH]2)C(O)C(Oc2ccc3c(O)c(NC(=O)c4ccc(O)c(CC=C(C)C)c4)c(=O)oc3c2Cl)OC1(C)C (stereo not drawn) [compound 3, clorobiocin] | 2.1 ± 0.5 | > 50 | inhibition of growth of Trypanosoma cruzi (Trypanosoma cruzi): inhibit the growth
3 | O=C(O)c1ccccc1-c1ccccc1C(=O)Nc1ccc2c(c1)Cc1cc(F)ccc1-2 [compound 10] |  | > 50 | 
4 | CCn1c2ccccc2c2cc(NC(=O)c3ccccc3-c3ccccc3C(=O)O)ccc21 [compound 2] | 1.2 ± 0.3 | > 50 | 
5 | O=C(O)c1ccccc1-c1ccccc1C(=O)Nc1ccc2c(c1)C(=O)c1ccccc1-2 [compound 5] |  | > 50 | 
6 | O=C(O)c1ccccc1-c1ccccc1C(=O)Nc1cc2c3ccccc3ccc2c2ccccc12 [compound 12] |  | > 50 | 
7 | O=C(O)c1cc(Cl)ccc1-c1ccc(Cl)cc1C(=O)NC1=CC2=C(CC1)c1c(Cl)cc(Cl)cc1C2 [compound 14] |  |  | Tb EC50 (cultured T. brucei): no activity; MRC5 EC50 (human MRC5 cells): demonstrated inhibition of MRC5 growth
8 | O=C(O)c1cc(Cl)ccc1-c1ccc(Cl)cc1C(=O)Nc1ccc2c(c1)Cc1ccccc1-2 [compound 13] |  | > 50 | 
9 | O=C(O)c1ccccc1-c1ccccc1C(=O)Nc1ccc2c(c1)nc(O)c1ccccc12 [compound 1] | 1.8 ± 0.6 | > 50 | 
